Measured values taken from patent US20070249725A1, “Pharmaceutical formulations of sympathetic antagonist for the treatment of chronic muscle pain” (priority 2006, published 2007).
Where a name gives a salt, the structure may show the parent alone.

Test: Adverse events in subjects treated by trigger point injection (Example 1)
Assay type: in vivo, human
Description: A total of 326 male and female subjects, approximately 15 to 85 years old with pain of 4-72 month duration were treated with various doses of phenoxybenzamine. If a potential subject had pain that was clearly muscular and clearly not due to arthritis, nerve root compression or other extramuscular cause, the subject was considered a candidate for phenoxybenzamine hydrochloride injection. Trigger points were identified by palpation. A monopolar EMG needle was then inserted into the trigger point. Another monopolar EMG needle was inserted into a nearby nontender fibers of the same muscle. […] The treatment was repeated in up to 10-12 trigger points per treatment session. Subjects could return for up to 6 treatment sessions, depending on the extent of their pain. The initial treatment was with a dose of 25 mg of phenoxybenzamine hydrochloride in an injection volume of 2 ml. […] For 318 subjects, data were available for analysis for the doses of phenoxybenzamine hydrochloride used, efficacy and incidence of serious adverse events.
The frequencies of other adverse events occurring in the first 199 subjects treated, including the first 87 subjects treated with the 3 mg dose, are given in the table below. Results with an additional 131 subjects treated with the 3 mg dose have been similar.

[1] = 3 mg, multiple injections, N 87
[2] = 10-12.5 mg, multiple injections, N 89
[3] = 10-25 mg, single injection, N 23

SMILES: CC(COc1ccccc1)N(CCCl)Cc1ccccc1 (stereo not drawn) [Phenoxybenzamine Hydrochloride, phenoxybenzamine hydrochloride]
- frequencies of adverse events in additional 131 subjects compared with Table 3 (3 mg dose): similar
- Bruising at injection site, % of subjects [1]: (1%)
- Bruising at injection site, number of subjects [1]: 1
- Burning, % of subjects [1]: (0%)
- Cold sensation, % of subjects [1]: (0%)
- Diaphoresis, % of subjects [1]: (0%)
- Diarrhea, % of subjects [1]: (0%)
- Dizziness, % of subjects [1]: (3%)
- Dizziness, number of subjects [1]: 3
- Dry mouth, % of subjects [1]: (0%)
- Dysphagia, % of subjects [1]: (0%)
- Dyspnea, % of subjects [1]: (1%)
- Dyspnea, number of subjects [1]: 1
- Epistaxis, % of subjects [1]: (0%)
- Fatigue, % of subjects [1]: (3%)
- Fatigue, number of subjects [1]: 3
- Fever, % of subjects [1]: (0%)
- Flu syndrome, % of subjects [1]: (1%)
- Flu syndrome, number of subjects [1]: 1
- Hair disorder, % of subjects [1]: (1%)
- Hair disorder, number of subjects [1]: 1
- Headache, % of subjects [1]: (3%)
- Headache, number of subjects [1]: 3
- Hypesthesia, % of subjects [1]: (0%)
- Injection site drainage, % of subjects [1]: (0%)
- Injection site soreness, % of subjects [1]: (21%)
- Injection site soreness, number of subjects [1]: 18
- Injection site swelling, % of subjects [1]: 23%
- Injection site swelling, number of subjects [1]: 20
- Lethargy, % of subjects [1]: (1%)
- Lethargy, number of subjects [1]: 1
- Lightheadedness, % of subjects [1]: (0%)
- Nasal disorder, % of subjects [1]: (0%)
- Nausea, % of subjects [1]: (2%)
- Nausea, number of subjects [1]: 2
- Pain, % of subjects [1]: (5%)
- Pain, number of subjects [1]: 4
- Palpitations, % of subjects [1]: (0%)
- Paresthesia, % of subjects [1]: (0%)
- Pharyngitis, % of subjects [1]: (0%)
- Pruritis, % of subjects [1]: (0%)
- Rash, % of subjects [1]: 0%
- Stiffness, % of subjects [1]: (1%)
- Stiffness, number of subjects [1]: 1
- Swelling, % of subjects [1]: (0%)
- Syncope, % of subjects [1]: (0%)
- Tachycardia, % of subjects [1]: (0%)
- Taste disorder, % of subjects [1]: (1%)
- Taste disorder, number of subjects [1]: 1
- Tremor, % of subjects [1]: (1%)
- Tremor, number of subjects [1]: 1
- Vomiting, % of subjects [1]: (0%)
- Bruising at injection site, % of subjects [2]: (11%)
- Bruising at injection site, number of subjects [2]: 10
- Burning, % of subjects [2]: (3%)
- Burning, number of subjects [2]: 3
- Cold sensation, % of subjects [2]: (1%)
- Cold sensation, number of subjects [2]: 1
- Diaphoresis, % of subjects [2]: (1%)
- Diaphoresis, number of subjects [2]: 1
- Diarrhea, % of subjects [2]: (2%)
- Diarrhea, number of subjects [2]: 2
- Dizziness, % of subjects [2]: (20%)
- Dizziness, number of subjects [2]: 18
- Dry mouth, % of subjects [2]: (1%)
- Dry mouth, number of subjects [2]: 1
- Dysphagia, % of subjects [2]: (0%)
- Dyspnea, % of subjects [2]: (3%)
- Dyspnea, number of subjects [2]: 3
- Epistaxis, % of subjects [2]: (0%)
- Fatigue, % of subjects [2]: (4%)
- Fatigue, number of subjects [2]: 4
- Fever, % of subjects [2]: (1%)
- Fever, number of subjects [2]: 1
- Flu syndrome, % of subjects [2]: (1%)
- Flu syndrome, number of subjects [2]: 1
- Hair disorder, % of subjects [2]: (0%)
- Headache, % of subjects [2]: (10%)
- Headache, number of subjects [2]: 9
- Hypesthesia, % of subjects [2]: (4%)
- Hypesthesia, number of subjects [2]: 4
- Injection site drainage, % of subjects [2]: (2%)
- Injection site drainage, number of subjects [2]: 2
- Injection site soreness, % of subjects [2]: (37%)
- Injection site soreness, number of subjects [2]: 33
- Injection site swelling, % of subjects [2]: 45%
- Injection site swelling, number of subjects [2]: 40
- Lethargy, % of subjects [2]: (0%)
- Lightheadedness, % of subjects [2]: (13%)
- Lightheadedness, number of subjects [2]: 12
- Nasal disorder, % of subjects [2]: (2%)
- Nasal disorder, number of subjects [2]: 2
- Nausea, % of subjects [2]: (18%)
- Nausea, number of subjects [2]: 16
- Pain, % of subjects [2]: (0%)
- Palpitations, % of subjects [2]: (1%)
- Palpitations, number of subjects [2]: 1
- Paresthesia, % of subjects [2]: (3%)
- Paresthesia, number of subjects [2]: 3
- Pharyngitis, % of subjects [2]: (1%)
- Pharyngitis, number of subjects [2]: 1
- Pruritis, % of subjects [2]: (1%)
- Pruritis, number of subjects [2]: 1
- Rash, % of subjects [2]: 2%
- Rash, number of subjects [2]: 2
- Stiffness, % of subjects [2]: (2%)
- Stiffness, number of subjects [2]: 2
- Swelling, % of subjects [2]: (2%)
- Swelling, number of subjects [2]: 2
- Syncope, % of subjects [2]: (7%)
- Syncope, number of subjects [2]: 6
- Tachycardia, % of subjects [2]: (0%)
- Taste disorder, % of subjects [2]: (2%)
- Taste disorder, number of subjects [2]: 2
- Tremor, % of subjects [2]: (1%)
- Tremor, number of subjects [2]: 1
- Vomiting, % of subjects [2]: (8%)
- Vomiting, number of subjects [2]: 7
- Bruising at injection site, % of subjects [3]: (0%)
- Burning, % of subjects [3]: (4%)
